This passage reports IC50 and EC50 results from patent publication US7323447B2, “Hepatitis C virus inhibitors” (Bristol-Myers Squibb Company, priority 2005, dated 2008).

Experiment [1] concerns the target T1, HCV NS3/4A protease complex (BMS strain) (UniProt P27958).
T1 construct: other: HCV NS3/4A enzyme assay; said of H77 and J4L6S; fused on or other part: Three-lysine solubilising tail at the NS4A C-terminus and a His tag from pET21b (Ni-NTA purification), for the H77 and J4L6S constructs
Description: FRET peptide assay to monitor HCV NS3/4A proteolytic activity, BMS strain. It is filed as biochemical, Hepatitis C virus (genotype 1a). Particulars: read-out: IC50 Range; HCV NS3/4A enzyme assay; Table 1. From the text: HCV NS3 protease complexes, derived from the BMS strain, H77 strain or J4L6S strain, were generated, as described below. These purified recombinant proteins were generated for use in a homogeneous assay (see below) to provide an indication of how effective compounds of the present disclosure would be in inhibiting HCV NS3 proteolytic activity.
Serum from an HCV-infected patient was obtained from Dr. T. Wright, San Francisco Hospital. An engineered full-length cDNA (compliment deoxyribonucleic acid) template of the HCV genome (BMS strain) was constructed from DNA fragments obtained by reverse transcription-PCR (RT-PCR) of serum RNA (ribonucleic acid) and using primers selected on the basis of homology between other genotype 1a strains. From the determination of the entire genome sequence, a genotype 1a was assigned to the HCV isolate according to the classification of Simmonds et al. (See P Simmonds, K A Rose, S Graham, S W Chan, F McOmish, B C Dow, E A Follett, P L Yap and […] Marsden, J. Clin. Microbiol., 31(6), 1493-1503 (1993)). […] The infectious clones, H77 (1a genotype) and J4L6S (1b genotype) were obtained from R. Purcell (NIH) and the sequences are published in Genbank (AAB67036, see Yanagi, M., Purcell, R. H., Emerson, S. U. and Bukh, J. Proc. Natl. Acad. Sci. U.S.A. 94(16), 8738-8743 (1997); AF054247, see Yanagi, M., St Claire, M., Shapiro, M., Emerson, S. U., Purcell, R. H. and Bukh, J, Virology 244 (1), 161-172. (1998)).
NS3/4A protease complex-containing fractions were pooled and loaded on a desalting column Superdex-S200 pre-equilibrated with buffer D (25 mM HEPES, pH 7.5, 20% glycerol, 300 mM NaCl, 0.2% Triton X-100, 10 mM βME). Sample was loaded at a flow rate of 1 mL/min. NS3/4A protease complex-containing fractions were pooled and concentrated to approximately 0.5 mg/ml. The purity of the NS3/4A protease complexes, derived from the BMS, H77 and J4L6S strains, were judged to be greater than 90% by SDS-PAGE and mass spectrometry analyses. The enzyme was stored at −80° C., thawed on ice and diluted prior to use in assay buffer.
The purpose of this in vitro assay was to measure the inhibition of HCV NS3 protease complexes, derived from the BMS strain, H77 strain or J4L6S strain, as described above, by compounds of the present disclosure. This assay provides an indication of how effective compounds of the present disclosure would be in inhibiting HCV NS3 proteolytic activity.
In order to monitor HCV NS3/4A protease activity, an NS3/4A peptide substrate was used. The substrate was RET S1 (Resonance Energy Transfer Depsipeptide Substrate; AnaSpec, Inc. cat # 22991) (FRET peptide), described by Taliani et al. in Anal. Biochem. 240(2):60-67 (1996). The sequence of this peptide is loosely based on the NS4A/NS4B natural cleavage site for the HCV NS3 protease except there is an ester linkage rather than an amide bond at the cleavage site. The peptide also contains a fluorescence donor, EDANS, near one end of the peptide and an acceptor, DABCYL, near the other end. The fluorescence of the peptide is quenched by […] resonance energy transfer (RET) between the donor and the acceptor, but as the NS3 protease cleaves the peptide the products are released from RET quenching and the fluorescence of the donor becomes apparent.
The peptide substrate was incubated with one of the three recombinant NS3/4A protease complexes, in the absence or presence of a compound of the present disclosure. The inhibitory effects of a compound were determined by monitoring the formation of fluorescent reaction product in real time using a Cytofluor Series 4000.
Assay buffer: 50 mM HEPES, pH 7.5; 0.15 M NaCl; 0.1% Triton; 15% Glycerol; 10 mM βME. Substrate: 2 μM final concentration (from a 2 mM stock solution in DMSO stored at −20° C.). HCV NS3/4A protease type 1a (1b), 2-3 nM final concentration (from a 5 μM stock solution in 25 mM HEPES, pH 7.5, 20% glycerol, 300 mM NaCl, 0.2% Triton-X100, 10 mM βME). […]

Experiment [2] concerns HCV replicon in HUH-7 cells. Description: HCV replicon FRET assay. It is filed as cell-based, Hepatitis C virus (strain 1b). Particulars: Table 1. An excerpt: An HCV replicon whole cell system was established as described by Lohmann V, Korner F, Koch J, Herian U, Theilmann L, Bartenschlager R., Science 285(5424): 110-3 (1999). This system enabled us to evaluate the effects of our HCV Protease compounds on HCV RNA replication. Briefly, using the HCV strain 1b sequence described in the Lohmann paper (Assession number: AJ238799), an HCV cDNA was synthesized by Operon Technologies, Inc. (Alameda, Calif.), and the full-length replicon was then assembled in plasmid pGem9zf(+) (Promega, Madison, Wis.) using standard molecular biology techniques. The replicon consists of (i) the HCV 5′ UTR fused to the first 12 amino acids of the capsid protein, (ii) the neomycin phosphotransferase gene (neo), (iii) the IRES from encephalomyocarditis virus (EMCV), and (iv) HCV NS3 to NS5B genes and the HCV 3′ UTR. Plasmid DNAs were linearized with ScaI and RNA transcripts were synthesized in vitro using the T7 MegaScript transcription kit (Ambion, Austin, Tex.) according to manufacturer's directions. In vitro transcripts of the cDNA were transfected into the human hepatoma cell line, HUH-7. […] Resulting cell lines were characterized for positive and negative strand RNA production and protein production over time.
The HCV replicon FRET assay was developed to monitor the inhibitory effects of compounds described in the disclosure on HCV viral replication. HUH-7 cells, constitutively expressing the HCV replicon, were grown in Dulbecco's Modified Eagle Media (DMEM) (Gibco-BRL) containing 10% Fetal calf serum (FCS) (Sigma) and 1 mg/ml G418 (Gibco-BRL). Cells were seeded the night before (1.5×10^4 cells/well) in 96-well tissue-culture sterile plates. Compound and no compound controls were prepared in DMEM containing 4% FCS, 1:100 Penicillin/Streptomysin (Gibco-BRL), 1:100 L-glutamine and 5% DMSO in the dilution plate (0.5% DMSO final concentration in the assay). Compound/DMSO mixes were added to the cells and incubated for 4 days at 37° C. After 4 days, cells were first assessed for cytotoxicity using alamar Blue (Trek Diagnotstic Systems) for a CC50 reading. The toxicity of compound (CC50) was determined by adding 1/10th volume of alamarBlue to the media incubating the cells. After 4 h, the fluorescence signal from each well was read, with an excitation wavelength at 530 nm and an emission wavelength of 580 nm, using the Cytofluor Series 4000 (Perspective Biosystems). Plates were then rinsed thoroughly with Phosphate-Buffered Saline (PBS) (3 times 150 μl). The cells were lysed with 25 μl of a lysis assay reagent containing an HCV protease substrate (5× cell Luciferase cell culture lysis reagent (Promega #E153A) diluted to 1× with distilled water, NaCl added to 150 mM final, the FRET peptide substrate (as described for the enzyme assay above) diluted to 10 μM final from a 2 mM stock in 100% DMSO. The plate was then placed into the Cytofluor 4000 instrument which had been set to 340 nm excitation/490 nm emissions, automatic mode for 21 cycles and the plate read in a kinetic mode. EC50 determinations were carried out as described for the IC50 determinations.
(In general: In antiviral work, replicon cells carry a viral genome segment that copies itself.)

The mark [3] stands for this setting: Hepatitis C virus, Huh-7, read-out: EC50 Range, HCV replicon cell assay.
The mark [4] stands for this setting: read-out: EC50 Range, HCV replicon cell assay.

Read-outs that look alike come from different tables or passages of the source. Where only a bound is given, the exact number is not on record here.

T1 sequence (P27958 1027-1657, one chain of several): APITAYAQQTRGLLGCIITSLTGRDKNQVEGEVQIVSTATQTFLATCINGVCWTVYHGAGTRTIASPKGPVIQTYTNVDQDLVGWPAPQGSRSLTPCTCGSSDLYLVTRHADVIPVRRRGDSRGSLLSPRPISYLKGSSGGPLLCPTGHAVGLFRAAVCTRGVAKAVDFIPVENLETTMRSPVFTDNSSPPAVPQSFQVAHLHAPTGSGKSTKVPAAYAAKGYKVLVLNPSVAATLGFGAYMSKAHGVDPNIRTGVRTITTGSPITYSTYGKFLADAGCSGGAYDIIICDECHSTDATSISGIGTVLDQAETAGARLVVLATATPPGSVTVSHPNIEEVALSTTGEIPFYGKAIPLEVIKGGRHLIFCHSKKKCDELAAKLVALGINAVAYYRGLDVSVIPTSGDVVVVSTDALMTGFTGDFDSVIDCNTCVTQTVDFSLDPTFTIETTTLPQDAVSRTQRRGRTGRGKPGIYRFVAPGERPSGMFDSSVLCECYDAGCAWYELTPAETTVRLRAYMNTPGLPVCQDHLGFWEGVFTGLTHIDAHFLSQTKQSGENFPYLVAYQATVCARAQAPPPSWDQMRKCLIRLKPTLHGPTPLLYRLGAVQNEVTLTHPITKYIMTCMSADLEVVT

For orientation: IC50 means the concentration needed to halve the response being measured. The EC50 is the concentration at which the effect is half-maximal. Consider `C=C[C@@H]1C[C@]1(NC(=O)[C@@H]1C[C@@H](Oc2nccc3ccccc23)CN1C(=O)[C@@H](OC(=O)Nc1ccccc1C(C)C)C(C)(C)C)C(=O)NS(=O)(=O)C1CC1` [Example 32], for which the IC50 in experiment [1] is 100 to 1000 nM. The EC50 in experiment [2] (setting [3]) fell in the range of 500 to 5000 nM.
Regarding `C=C[C@@H]1C[C@]1(NC(=O)[C@@H]1C[C@@H](Oc2nccc3cc(OC)ccc23)CN1C(=O)[C@@H](OC(=O)NC1CCCC1)C(C)C)C(=O)NS(=O)(=O)C1CC1` [Example 51Compound 51], in experiment [1], the IC50 is less than 100 nM. Further, the EC50 in experiment [2] (setting [4]) fell in the range of 500 to 5000 nM.
Turning to `C=C[C@@H]1C[C@]1(NC(=O)[C@@H]1CC(Oc2nc(-c3ccc(OC(F)(F)F)cc3)cc3cc(OC)ccc23)CN1C(=O)[C@@H](O)C(C)(C)C)C(=O)NS(=O)(=O)C1CC1` (some centres unmarked) [Example 20], in experiment [1], the IC50 is less than 100 nM. Moreover, in experiment [2] (setting [3]), the EC50 fell in the range of 500 to 5000 nM.
Consider `C=C[C@@H]1C[C@]1(NC(=O)[C@@H]1C[C@@H](Oc2nccc3cc(OC)ccc23)CN1C(=O)[C@@H](OC(=O)NC1CCCC1)C(C)C)C(=O)NS(=O)(=O)C1CC1` (stereo in doubt) [Example 53Compound 53], for which the IC50 in experiment [1] is greater than 1000 nM. In addition, the EC50 in experiment [2] (setting [4]) was greater than 5000 nM.
Turning to `C=C[C@@H]1C[C@]1(NC(=O)[C@@H]1C[C@@H](Oc2cc(-c3ccccc3)nc3cc(OC)ccc23)CN1C(=O)[C@H](O)c1ccccc1)C(=O)NS(=O)(=O)C1CC1` [Example 18], in experiment [1], the IC50 is 100 to 1000 nM. For the same molecule, the EC50 in experiment [2] (setting [3]) is greater than 5000 nM.
The like results for `C=C[C@@H]1C[C@]1(NC(=O)[C@@H]1C[C@@H](Oc2cc(-c3ccccc3)nc3cc(OC)ccc23)CN1C(=O)[C@@H](O)CC(C)C)C(=O)NS(=O)(=O)C1CC1` [Example 4,Compound 6] were, in that order, less than 100 nM and 500 to 5000 nM.
For `C=C[C@@H]1C[C@]1(NC(=O)[C@@H]1C[C@@H](Oc2cc(-c3ccccc3)nc3cc(OC)ccc23)CN1C(=O)[C@@H](O)C(C)C)C(=O)NS(=O)(=O)C1CC1` (stereo in doubt) [Example 4,Compound 5], in that order: less than 100 nM and 500 to 5000 nM.
The like results for `C=C[C@@H]1C[C@]1(NC(=O)[C@@H]1C[C@@H](Oc2nccc3cc(OC)ccc23)CN1C(=O)[C@@H](OC(=O)NC1(C(F)(F)F)CC1)C(C)C)C(=O)NS(=O)(=O)C1CC1` [Example 54Compound 54] were, in that order, 100 to 1000 nM and 500 to 5000 nM.
With `CCC1C[C@]1(NC(=O)[C@@H]1C[C@@H](Oc2cc(-c3ccccc3)nc3cc(OC)ccc23)CN1C(=O)C(O)C(C)(C)C)C(=O)NS(=O)(=O)C1CC1` (some centres unmarked) [Example 10], the IC50 in experiment [1] was less than 100 nM. Moreover, the EC50 in experiment [2] (setting [3]) lay in the range of 500 to 5000 nM.
As to `C=C[C@@H]1C[C@]1(NC(=O)[C@@H]1C[C@@H](Oc2nc(-c3ccc(OC(F)(F)F)cc3)cc3cc(OC)ccc23)CN1C(=O)[C@@H](O)C1CCCCC1)C(=O)NS(=O)(=O)C1CC1` [Example 62Compound 62], in experiment [1], the IC50 was 100 to 1000 nM. Moreover, the EC50 in experiment [2] (setting [3]) was in the range of 500 to 5000 nM.
For `C=C[C@@H]1C[C@]1(NC(=O)[C@@H]1C[C@@H](Oc2cc(-c3ccccc3)nc3cc(OC)ccc23)CN1C(=O)[C@@H](OC(=O)NC(C)C)C(C)(C)C)C(=O)NS(=O)(=O)C1CC1` [Example 5,Compound 2], in that order: less than 100 nM and less than 500 nM.
For `C=C[C@@H]1C[C@]1(NC(=O)[C@@H]1C[C@@H](Oc2cc(-c3ccccc3)nc3cc(OC)ccc23)CN1C(=O)[C@@H](O)c1ccccc1)C(=O)NS(=O)(=O)C1CC1` [Example 4,Compound 1], in that order: 100 to 1000 nM and greater than 5000 nM.
For `CCC1C[C@]1(NC(=O)[C@@H]1C[C@@H](Oc2cc(-c3ccccc3)nc3cc(OC)ccc23)CN1C(=O)[C@@H](O)CC(C)C)C(=O)NS(=O)(=O)C1CC1` (some centres unmarked) [Example 17], in that order: 100 to 1000 nM and 500 to 5000 nM.
Turning to `C=C[C@@H]1C[C@]1(NC(=O)[C@@H]1C[C@@H](Oc2cc(-c3ccccc3)nc3cc(OC)ccc23)CN1C(=O)[C@@H](OC(=O)Nc1ccccc1)C(C)(C)C)C(=O)NS(=O)(=O)C1CC1` [Example 5,Compound 4], in experiment [1], the IC50 is less than 100 nM. Further, in experiment [2] (setting [3]), the EC50 is less than 500 nM.
As for `C=C[C@@H]1C[C@]1(NC(=O)[C@@H]1C[C@@H](Oc2cc(-c3cccs3)cc(-c3ccccc3)n2)CN1C(=O)[C@@H](OC(=O)NC(C)(C)C)C(C)(C)C)C(=O)NS(=O)(=O)C1CC1` [Example 55Compound 55], the IC50 in experiment [1] is less than 100 nM. For the same molecule, the EC50 in experiment [2] (setting [3]) lay within 500 to 5000 nM.
The like results for `C=C[C@@H]1C[C@]1(NC(=O)[C@@H]1C[C@@H](Oc2cc(-c3ccccc3)nc3cc(OC)ccc23)CN1C(=O)[C@@H](OC(=O)Nc1ccc(OC)cc1C)C(C)(C)C)C(=O)NS(=O)(=O)C1CC1` [Example 5,Compound 6] were, in that order, 100 to 1000 nM and 500 to 5000 nM.
